# In US20010011081A1, “Pharmaceutical composition comprising L- carnitine or alkanoyl L-carnitine for the prevention and treatment of diseases brought about by lipid metabolism disorders” (Sigma-Tau Industrie Parmaceutiche Riunite S.p.A., priority 1995, published 2001):
# “Also recorded” adds a separate entry of the source.
# Columns and labels:
# [1] = system: atherosclerotic vascular lesions; assay: Experimental atherosclerosis test (atherogenic diet for six weeks); format: in vivo, Wistar rats
# Source text: Also in atherosclerotic vascular lesions induced experimenatlly according to the method of M. R. Malinow (Atherosclerosis 48, 105, 1983), with administration of an atherogenic diet (24% casein, 10% cotton oil, 5% salt, 60% sugar, 1% cholesterol, Vit D2 200 mUST/g of diet) for six weeks consecutively to different groups of male Wistar rats, it has been shown that the combination of carnitines plus calcium hydroxycitrate or Garcinia cambogia extract is capable of substantially potentiating the anti-atherogenic effect.
# This was assessed by measuring the thickness of the abdominal aorta and the intensity of staining induced by Sudan IV using a scoring system from 1 to 5, according to degree of severity.
# [2] = system: fructose-induced hypertriglyceridaemia; assay: Experimental hypertriglyceridaemia test (oral fructose); format: in vivo, Wistar rats; details: for EXPERIMENTALLY-INDUCED HYPERTRIGYCERIDAEMIA (serum triglycerides): 5 days before and two hours after 3 g fructose
# Method: In these tests, male Wistar rats serum triglyceride elevation was induced experimentally by means of the oral administration of fructose according to the method disclosed by L. A. V. Carlson (J. Atheroscler. Res. 8, 667, 1968; Atherosclerosis 16, 349, 1972). In the 5-day period prior to administration of 3 g of fructose, the rats, divided into groups, were treated with L-carnitine or its derivatives or with calcium hydroxycitrate or Garcinia cambogia extract at different doses, or with various combinations of these products.
# The administration of these products was then repeated two hours after administration of fructose, and 5 hours later all animals were sacrificed. Triglyceride assay was then performed according to the method of R. K. Donabedian (Clin. Chem 20, 632, 1974).
# [3] = system: experimentally obese rats; assay: Tests in experimentally obese rats on a lipogenic diet for fifteen days (food consumption, body weight, serum triglycerides, epididymal fat); format: in vivo, Wistar rats; details: for MEAN DAILY FOOD CONSUMPTION (g) PER ANIMAL After 15 days / MEAN DAILY FOOD CONSUMPTION (g) PER ANIMAL Before treatment / Final body weight increase (g) AFTER 15 DAY-TREATMENT / SERUM Triglycerides AFTER 15 DAY-TREATMENT / Epididimal fat AFTER 15 DAY-TREATMENT: lipogenic diet
# Method: Male Wistar rats aged about 2 months were fed on a lipogenic diet (50% glucose, 20% casein, 4% cellulose, 5% salt mixture, 1% hazel nut oil, 18% starch, 1% vitamin mixture).
# This diet was administered for fifteen days consecutively to different groups of rats, one of which served as a control group, whereas in the other groups the diet was administered together with calcium hydroxycitrate (1%-2%) or Garcinia cambogia extract (2%-4%) or L-carnitine (2%-4%) or acetyl L-carnitine or propionyl L-carnitine at the same doses, or together with various combinations of these products at the same doses. At the end of the fifteenth day of treatment, food consumption was evaluated in treated rats vs. controls and increases in body weight and in serum triglycerides and epididymal fat were measured.
# [4] = system: Wistar rats with hypercholesterolaemia induced by diet; assay: Experimental hypercholesterolaemia test (diet-induced, six weeks); format: in vivo; details: serum
# Method: The results of tests conducted in Wistar rats with hypercholesterolaemia induced by diet according to the method described by C. […] Treatment both with L-carnitine and with calcium hydroxycitrate or with Garcinia cambogia extract, or with a combination of these products, was initiated together with a hypercholesterolaemia-inducing diet and continued for six weeks consecutively. At the end of this period, the assay was performed on the serum of the control animals and on that of the treated animals according to the method described by P. Roschlan (Clin. Chem. Clin. Biochem. 12, 403, 1975).
# [5] = fifteen days of treatment on a lipogenic diet
# [6] = g 1/100 g diet, listed as calcium hydroxycitrate
# [7] = g 2/100 g diet, listed as calcium hydroxycitrate
Molecule,"severity of atherosclerotic lesions / anti-atherogenic effect (abdominal aorta thickness, Sudan IV staining score 1 to 5) [1]",EXPERIMENTALLY-INDUCED HYPERTRIGYCERIDAEMIA (serum triglycerides) ([2]; g 0.5/Kg),EXPERIMENTALLY-INDUCED HYPERTRIGYCERIDAEMIA (serum triglycerides) ([2]; g 1/Kg),MEAN DAILY FOOD CONSUMPTION (g) PER ANIMAL After 15 days ([3]; g 4/100 g diet),MEAN DAILY FOOD CONSUMPTION (g) PER ANIMAL Before treatment ([3]; g 2/100 g diet),MEAN DAILY FOOD CONSUMPTION (g) PER ANIMAL Before treatment ([3]; g 4/100 g diet),"change in daily food consumption (in words) [3, 5]",Final body weight increase (g) AFTER 15 DAY-TREATMENT ([3]; g 2/100 g diet),SERUM Triglycerides AFTER 15 DAY-TREATMENT ([3]; g 2/100 g diet),Final body weight increase (g) AFTER 15 DAY-TREATMENT ([3]; g 4/100 g diet),SERUM Triglycerides AFTER 15 DAY-TREATMENT ([3]; g 4/100 g diet),"EXPERIMENTALLY-INDUCED HYPERCHOLESTEROLEMIA, TOTAL CHOLESTEROL ([4]; g 2/100 g diet)","EXPERIMENTALLY-INDUCED HYPERCHOLESTEROLEMIA, TOTAL CHOLESTEROL ([4]; g 4/100 g diet)",MEAN DAILY FOOD CONSUMPTION (g) PER ANIMAL After 15 days ([3]; g 2/100 g diet),also measured
C[N+](C)(C)C[C@H](O)CC(=O)[O-] [L-carnitine],capable of reducing the severity of the atherosclerotic lesions,190.4 ± 9.6 mg/100 ml,190.8 ± 8.6 mg/100 ml,17.8 ± 0.41 g,17.3 ± 0.35 g,18.4 ± 0.61 g,No changes compared to controls; also recorded: non-significant changes,66.2 ± 4.9 g,92.55 ± 7.7 mg/100 ml,64.5 ± 5.1 g,90.44 ± 6.8 mg/100 ml,270.4 ± 5.1 mg/dL,260.6 ± 4.4 mg/dL,–,–
CC(=O)O[C@H](CC(=O)[O-])C[N+](C)(C)C [Acetyl L-carnitine],–,191.2 ± 9.1 mg/100 ml,188.4 ± 5.5 mg/100 ml,18.8 ± 0.57 g,18.6 ± 0.39 g,18.2 ± 0.41 g,No changes compared to controls; also recorded: non-significant changes,60.4 ± 7.1 g,95.81 ± 8.2 mg/100 ml,60.1 ± 6.1 g,90.8 ± 7.5 mg/100 ml,266.7 ± 7.7 mg/dL,255.4 ± 9.4 mg/dL,18.4 ± 0.44 g,–
CCC(=O)O[C@H](CC(=O)[O-])C[N+](C)(C)C [Propionyl L-carnitine],–,184.2 ± 6.8 mg/100 ml,180.4 ± 7.9 mg/100 ml,18.5 ± 0.48 g,17.7 ± 0.56 g,18.2 ± 0.44 g,No changes compared to controls; also recorded: non-significant changes,62.4 ± 3.9 g,88.4 ± 8.16 mg/100 ml,58.7 ± 3.7 g,82.7 ± 6.6 mg/100 ml,250.6 ± 10.1 mg/dL,235.3 ± 9.6 mg/dL,17.1 ± 0.38 g,Epididimal fat AFTER 15 DAY-TREATMENT ([3]; g 4/100 g diet): 4.0 ± 5.6 g
Calcium hydroxycitrate,capable of reducing the severity of the atherosclerotic lesions,170.6 ± 8.5 mg/100 ml,145.5 ± 8.5 mg/100 ml,–,18.8 ± 0.44 g,–,substantial reduction,38.9 ± 3.8 g,73.66 ± 7.1 mg/100 ml,–,–,180.5 ± 8.1 mg/dL,–,15.1 ± 0.46 g,"fructose-induced hypertriglyceridaemia (in words) ([2]; rat, in vivo): reduced; MEAN DAILY FOOD CONSUMPTION (g) PER ANIMAL After 15 days ([3]; g 1/100 g diet): 17.1 ± 0.35 g; MEAN DAILY FOOD CONSUMPTION (g) PER ANIMAL After 15 days [3, 6]: 17.1 g; MEAN DAILY FOOD CONSUMPTION (g) PER ANIMAL After 15 days [3, 7]: 15.1 g; MEAN DAILY FOOD CONSUMPTION (g) PER ANIMAL Before treatment ([3]; g 1/100 g diet): 19.2 ± 0.65 g; MEAN DAILY FOOD CONSUMPTION (g) PER ANIMAL Before treatment [3, 6]: 19.2 g; MEAN DAILY FOOD CONSUMPTION (g) PER ANIMAL Before treatment [3, 7]: 18.8 g; body weight gain (in words) [3, 5]: reduced; Epididimal fat AFTER 15 DAY-TREATMENT ([3]; g 1/100 g diet): 3.91 ± 0.36 g; Final body weight increase (g) AFTER 15 DAY-TREATMENT ([3]; g 1/100 g diet): 46.6 ± 4.1 g; SERUM Triglycerides AFTER 15 DAY-TREATMENT ([3]; g 1/100 g diet): 76.84 ± 6.9 mg/100 ml; Epididimal fat AFTER 15 DAY-TREATMENT ([3]; g 2/100 g diet): 3.32 ± 0.39 g; EXPERIMENTALLY-INDUCED HYPERCHOLESTEROLEMIA, TOTAL CHOLESTEROL ([4]; g 1/100 g diet): 196.6 ± 9.6 mg/dL; total cholesterol values (in words) [4]: fair degree of lowering"
